In PubChem BioAssay AID248 (DTP/NCI, 2004):
Where “and” joins values, the source holds several entries; their conditions need not be identical. Equal values may be shown once. Inconclusive results and toxic doses are left out. No stated cut-off is given here; in the data, active means T/C of 150% or more; inactive means T/C below 125%.

Tested on: L1210 leukemia ip in BDF1 mice, survival T/C
Assay: NCI In Vivo Anticancer Drug Screen. Data for tumor model L1210 Leukemia (intraperitoneal) in B6D2F1 (BDF1) mice
Settings: endpoint: mean survival time, higher = longer survival
Summary of the method: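 Mice bearing the transplanted tumor received compound or vehicle. Survival of the treated group was divided by that of the vehicle-treated control group to give the ratio.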

[1] = dose: 100.0 mg/kg/injection, schedule: Q01DX001 (ip), vehicle: Klucel (hydroxypropylcellulose) (HPC)
[2] = dose: 200.0 mg/kg/injection, schedule: Q01DX001 (ip), vehicle: Klucel (hydroxypropylcellulose) (HPC)
[3] = dose: 50.0 mg/kg/injection, schedule: Q01DX009 (ip), vehicle: saline with Tween-80
[4] = dose: 100.0 mg/kg/injection, schedule: Q01DX009 (ip), vehicle: saline with Tween-80
[5] = dose: 100.0 mg/kg/injection, schedule: Q04DX003 (ip), vehicle: saline with Tween-80
[6] = dose: 200.0 mg/kg/injection, schedule: Q04DX003 (ip), vehicle: saline with Tween-80

Measured: T/C

COc1c(C)ccc(/C=N/NC(=O)c2ccncc2)c1C
inactive: dose: 100.0 mg/kg/injection, schedule: Q04DX002 (ip), vehicle: carboxymethylcellulose (CMC) 95 % of control | dose: 200.0 mg/kg/injection, schedule: Q04DX002 (ip), vehicle: carboxymethylcellulose (CMC) 95 % of control | dose: 400.0 mg/kg/injection, schedule: Q04DX002 (ip), vehicle: carboxymethylcellulose (CMC) 92 % of control

Cc1cc(C)c(NS(=O)(=O)c2ccccc2)c(C)c1Br
inactive: dose: 75.0 mg/kg/injection, schedule: Q04DX003 (ip), vehicle: Klucel (hydroxypropylcellulose) (HPC) 95 % of control | dose: 150.0 mg/kg/injection, schedule: Q04DX003 (ip), vehicle: Klucel (hydroxypropylcellulose) (HPC) 94 % of control | dose: 300.0 mg/kg/injection, schedule: Q04DX003 (ip), vehicle: Klucel (hydroxypropylcellulose) (HPC) 94 % of control

[Cl][Pt+2][Cl].[NH-]C1CCCC1.[NH-]C1CCCC1
inactive: dose: 10.0 mg/kg/injection, schedule: Q01DX009 (ip), vehicle: Klucel (hydroxypropylcellulose) (HPC) 102 % of control | dose: 20.0 mg/kg/injection, schedule: Q01DX009 (ip), vehicle: Klucel (hydroxypropylcellulose) (HPC) 116 % of control | dose: 20.0 mg/kg/injection, schedule: Q04DX003 (ip), vehicle: Klucel (hydroxypropylcellulose) (HPC) 121 % of control | dose: 40.0 mg/kg/injection, schedule: Q01DX005 (ip), vehicle: olive oil, sesame oil, peanut oil 109 % of control | dose: 40.0 mg/kg/injection, schedule: Q01DX009 (ip), vehicle: Klucel (hydroxypropylcellulose) (HPC) 107 % of control | dose: 40.0 mg/kg/injection, schedule: Q04DX003 (ip), vehicle: Klucel (hydroxypropylcellulose) (HPC) 111 % of control and 123 % of control | dose: 66.0 mg/kg/injection, schedule: Q01DX005 (ip), vehicle: olive oil, sesame oil, peanut oil 112 % of control | dose: 80.0 mg/kg/injection, schedule: Q01DX009 (ip), vehicle: Klucel (hydroxypropylcellulose) (HPC) 121 % of control | dose: 80.0 mg/kg/injection, schedule: Q04DX003 (ip), vehicle: Klucel (hydroxypropylcellulose) (HPC) 117 % of control | dose: 100.0 mg/kg/injection, schedule: Q01DX005 (ip), vehicle: olive oil, sesame oil, peanut oil 120 % of control | dose: 150.0 mg/kg/injection, schedule: Q01DX005 (ip), vehicle: olive oil, sesame oil, peanut oil 115 % of control | dose: 160.0 mg/kg/injection, schedule: Q01DX009 (ip), vehicle: Klucel (hydroxypropylcellulose) (HPC) 124 % of control | dose: 160.0 mg/kg/injection, schedule: Q04DX003 (ip), vehicle: Klucel (hydroxypropylcellulose) (HPC) 108 % of control and 112 % of control | dose: 320.0 mg/kg/injection, schedule: Q01DX009 (ip), vehicle: Klucel (hydroxypropylcellulose) (HPC) 96 % of control | dose: 320.0 mg/kg/injection, schedule: Q04DX003 (ip), vehicle: Klucel (hydroxypropylcellulose) (HPC) 118 % of control

O=C(CCCCCCC(=O)C[n+]1ccccc1CO)C[n+]1ccccc1CO
inactive: dose: 12.5 mg/kg/injection, schedule: Q04DX003 (ip), vehicle: saline 101 % of control

Cc1nc(N)[nH]c(=O)c1CCCNC(=O)CCl (tested in a mixture with another compound)
inactive: dose: 50.0 mg/kg/injection, schedule: Q01DX001 (ip), vehicle: Klucel (hydroxypropylcellulose) (HPC) 114 % of control | [1] 108 % of control | [2] 100 % of control

CCN(CC)CC#CCN(CC)CC
inactive: [3] 92 % of control | [4] 97 % of control | [5] 102 % of control | [6] 90 % of control

Nc1ccc2oc(=O)c(C(=O)O)cc2c1
inactive: [1] 112 % of control | [2] 89 % of control

C=C(Br)CNC(=O)OC
inactive: dose: 25.0 mg/kg/injection, schedule: Q04DX003 (ip), vehicle: saline with Tween-80 100 % of control | dose: 50.0 mg/kg/injection, schedule: Q04DX003 (ip), vehicle: saline with Tween-80 105 % of control | [5] 121 % of control

CN(C)CCC=C1c2ccccc2-c2ccccc21
inactive: dose: 15.0 mg/kg/injection, schedule: Q01DX015 (ip), vehicle: carboxymethylcellulose (CMC) 88 % of control | dose: 25.0 mg/kg/injection, schedule: Q01DX009 (ip), vehicle: saline with Tween-80 105 % of control | dose: 30.0 mg/kg/injection, schedule: Q01DX015 (ip), vehicle: carboxymethylcellulose (CMC) 92 % of control | dose: 50.0 mg/kg/injection, schedule: Q01DX001 (ip), vehicle: carboxymethylcellulose (CMC) 93 % of control | [3] 96 % of control | dose: 60.0 mg/kg/injection, schedule: Q01DX015 (ip), vehicle: carboxymethylcellulose (CMC) 92 % of control | dose: 100.0 mg/kg/injection, schedule: Q01DX001 (ip), vehicle: carboxymethylcellulose (CMC) 104 % of control | [4] 111 % of control | dose: 100.0 mg/kg/injection, schedule: Q04DX003 (ip), vehicle: saline 115 % of control | dose: 120.0 mg/kg/injection, schedule: Q01DX015 (ip), vehicle: carboxymethylcellulose (CMC) 92 % of control | dose: 200.0 mg/kg/injection, schedule: Q01DX001 (ip), vehicle: carboxymethylcellulose (CMC) 98 % of control | dose: 400.0 mg/kg/injection, schedule: Q01DX001 (ip), vehicle: carboxymethylcellulose (CMC) 101 % of control

CCOC(=O)CNC(=O)Nc1ccc(S(N)(=O)=O)cc1
inactive: [4] 95 % of control | dose: 200.0 mg/kg/injection, schedule: Q01DX009 (ip), vehicle: saline with Tween-80 96 % of control | dose: 400.0 mg/kg/injection, schedule: Q01DX009 (ip), vehicle: saline with Tween-80 96 % of control

O=C1NC(=S)S/C1=C\c1ccc(N(CCCl)CCCl)cc1
inactive: [5] 96 % of control | [6] 93 % of control | dose: 400.0 mg/kg/injection, schedule: Q04DX003 (ip), vehicle: saline with Tween-80 96 % of control

CCOC(=O)CCC(=O)OCC
inactive: dose: 100.0 mg/kg/injection, schedule: Q01DX001 (ip), vehicle: saline 95 % of control | dose: 200.0 mg/kg/injection, schedule: Q01DX001 (ip), vehicle: saline 95 % of control | dose: 400.0 mg/kg/injection, schedule: Q01DX001 (ip), vehicle: saline 93 % of control

CCN(CC)CCCC(C)NC(=O)c1cc(=O)[nH]c(=O)[nH]1 (centres undefined)
inactive: dose: 25.0 mg/kg/injection, schedule: Q01DX009 (ip), vehicle: water 106 % of control | dose: 50.0 mg/kg/injection, schedule: Q01DX009 (ip), vehicle: water 96 % of control | dose: 100.0 mg/kg/injection, schedule: Q01DX009 (ip), vehicle: water 103 % of control and 91 % of control | dose: 100.0 mg/kg/injection, schedule: Q04DX003 (ip), vehicle: water 104 % of control | dose: 200.0 mg/kg/injection, schedule: Q04DX003 (ip), vehicle: water 101 % of control

Clc1ccc(CSSCc2ccc(Cl)cc2)cc1
inactive: dose: 100.0 mg/kg/injection, schedule: Q04DX002 (ip), vehicle: Klucel (hydroxypropylcellulose) (HPC) 95 % of control | dose: 200.0 mg/kg/injection, schedule: Q04DX002 (ip), vehicle: Klucel (hydroxypropylcellulose) (HPC) 110 % of control | dose: 400.0 mg/kg/injection, schedule: Q04DX002 (ip), vehicle: Klucel (hydroxypropylcellulose) (HPC) 100 % of control

CCCCC(N)P(=O)(O)O (centres undefined)
inactive: dose: 25.0 mg/kg/injection, schedule: Q04DX002 (ip), vehicle: saline 110 % of control | dose: 50.0 mg/kg/injection, schedule: Q04DX002 (ip), vehicle: saline 105 % of control | dose: 100.0 mg/kg/injection, schedule: Q04DX002 (ip), vehicle: saline 95 % of control

Cc1cccc(-c2nc(N)nc(N)n2)c1
inactive: dose: 75.0 mg/kg/injection, schedule: Q01DX001 (ip), vehicle: saline 106 % of control | dose: 150.0 mg/kg/injection, schedule: Q01DX001 (ip), vehicle: saline 104 % of control | dose: 300.0 mg/kg/injection, schedule: Q01DX001 (ip), vehicle: saline 101 % of control
